This assay has as its target GPR54 (Homo sapiens, UniProt Q969F8). The experiment in a line: Inositol phosphate (IP) antagonism assay: inhibition of 10 nM kisspeptin-10 stimulation of IP in CHO/gpr-54 cells. Type of assay: cell-based. Set-up: G. Vassart, Univ; Brussels. Particulars: for Inhibition of IP stimulation by 10 nM Agonist: % Inhibition of Max / IC50: CHO cells, 10 nM kisspeptin-10; for IC50: unit inferred, given in M. How it is done: Inositol-3-phoshate Antagonistic Assay—Cell monolayers had 0.5 mls HEPES modified DMEM supplemented with […] for 30 mins at 37° C. to block IP3 breakdown. Cells were then stimulated with 0.25 mls 10 nM Kisspeptin-10 plus 0.25 mls of 10 nM Kisspeptin-10 or analogues (10 pM-10 uM) diluted at 1:1000 in the above media for 1 hr at 37° C., then in 10 mM Formic acid at 4° C. for 1 hr to lyse cells. Lysate was then transferred to plastic tubes containing 0.5 mls Dowex resin to bind the radioactive IP3 and the resin was then washed with 1 ml H2O. The resin was then washed with 60 mM NH4 formate/5 mM Sodium tetraborate followed by 1M NH4 formate/0.1M Formic acid to release the bound radiation. Then 800 μls of the radioactive solution were transferred to scintillation vials containing 2.5 mls scintillation fluid and radioactivity counted on a Beta counter for 60 seconds.
Chinese hamster ovary (CHO) cells stably-expressing the human gpr-54 receptor (CHO/gpr-54) were obtained from Prof. G. Vassart, Univ. Brussels. The cells were maintained in Dulbecco's modified Eagle's medium (DMEM; Sigma) supplemented with 10% fetal calf serum, 2% glutamine and 1% penicillin (10,000 units/ml)/streptomycin ([…]) at 37° C. in a humidified 5% CO2 atmosphere.
Experiments were repeated 3-5 times. IP production was plotted as mean values±SEM and analyzed using a Student's t-Test ([…]).

Molecules are shown by their SMILES. Non-standard residues stand in square brackets, D forms with d. Residues, ends and D or L forms follow the SMILES beside them.

GPR54, sequence (Q969F8 whole entry): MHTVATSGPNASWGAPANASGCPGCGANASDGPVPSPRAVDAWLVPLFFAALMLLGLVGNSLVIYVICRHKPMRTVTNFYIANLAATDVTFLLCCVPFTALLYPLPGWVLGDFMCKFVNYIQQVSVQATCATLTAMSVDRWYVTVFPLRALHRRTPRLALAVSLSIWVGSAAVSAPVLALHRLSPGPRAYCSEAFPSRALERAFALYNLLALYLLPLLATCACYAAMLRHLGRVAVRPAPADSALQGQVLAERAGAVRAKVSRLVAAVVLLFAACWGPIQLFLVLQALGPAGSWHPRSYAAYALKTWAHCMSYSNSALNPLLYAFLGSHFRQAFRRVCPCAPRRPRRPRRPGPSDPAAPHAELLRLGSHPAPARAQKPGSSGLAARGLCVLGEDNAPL

As a reminder, the IC50 is the concentration at which inhibition is half-maximal. With `CC(=O)N[C@H](Cc1ccccc1)C(=O)N[C@@H](CC(N)=O)C(=O)N[C@@H](Cc1c[nH]c2ccccc12)C(=O)N[C@@H](CC(N)=O)C(=O)NCC(=O)N[C@@H](Cc1ccccc1)C(=O)NCC(=O)N[C@H](Cc1c[nH]c2ccccc12)C(=O)N[C@@H](CCCNC(=N)N)C(=O)N[C@@H](Cc1ccccc1)C(N)=O` [Peptide 244] (Ac-[dF]NWNGFG[dW]RF-NH2), the “Inhibition of IP stimulation by 10 nM Agonist: % Inhibition of Max” value (“Inhibition … % Inhibition of Max” below) came out at 60% and the IC50 came out at 10 nM.

Regarding `CC(=O)N[C@H](Cc1ccc(O)cc1)C(=O)N[C@@H](CC(N)=O)C(=O)N[C@@H](Cc1c[nH]c2ccccc12)C(=O)N[C@@H](CC(N)=O)C(=O)NCC(=O)N[C@H](Cc1c[nH]c2ccccc12)C(=O)NCC(=O)N[C@H](Cc1c[nH]c2ccccc12)C(=O)N[C@@H](CCCNC(=N)N)C(=O)N[C@@H](Cc1ccccc1)C(N)=O` [Peptide 245] (Ac-[dY]NWNG[dW]G[dW]RF-NH2), the “Inhibition … % Inhibition of Max” value amounted to 66%.

For the compound `CC(=O)N[C@H](C)C(=O)N[C@@H](CC(N)=O)C(=O)N[C@@H](Cc1c[nH]c2ccccc12)C(=O)N[C@@H](CC(N)=O)C(=O)NCC(=O)N[C@H](Cc1c[nH]c2ccccc12)C(=O)NCC(=O)N[C@H](Cc1c[nH]c2ccccc12)C(=O)N[C@@H](CCCNC(=N)N)C(=O)N[C@@H](Cc1ccccc1)C(N)=O` [Peptide 246] (Ac-[dA]NWNG[dW]G[dW]RF-NH2), the “Inhibition … % Inhibition of Max” value is 80% and the IC50 was determined as 50 nM.

As for `CC(=O)N[C@H](C)C(=O)N[C@@H](CC(N)=O)C(=O)N[C@@H](Cc1c[nH]c2ccccc12)C(=O)N[C@@H](CC(N)=O)C(=O)N[C@@H](CO)C(=O)N[C@@H](Cc1ccccc1)C(=O)NCC(=O)N[C@H](Cc1c[nH]c2ccccc12)C(=O)N[C@@H](CCCNC(=N)N)C(=O)N[C@@H](Cc1ccccc1)C(N)=O` [Peptide 247] (Ac-[dA]NWNSFG[dW]RF-NH2), the “Inhibition … % Inhibition of Max” value was found to be 80%.

Turning to `CC(=O)N[C@H](C)C(=O)N[C@@H](CC(N)=O)C(=O)N[C@@H](Cc1c[nH]c2ccccc12)C(=O)N[C@@H](CC(N)=O)C(=O)NCC(=O)N[C@@H](Cc1ccccc1)C(=O)NCC(=O)N[C@@H](Cc1c[nH]c2ccccc12)C(=O)N[C@@H](CCCNC(=N)N)C(=O)N[C@@H](Cc1ccccc1)C(N)=O` [Peptide 248] (Ac-[dA]NWNGFGWRF-NH2), the “Inhibition … % Inhibition of Max” value stood at 64%.

For `CSCC[C@H](NC(=O)[C@H](CCCNC(=N)N)NC(=O)[C@H](CCCNC(=N)N)NC(C)=O)C(=O)N[C@@H](CCCCN)C(=O)N[C@@H](Cc1c[nH]c2ccccc12)C(=O)N[C@@H](CCCCN)C(=O)N[C@@H](CCCCN)C(=O)N[C@@H](Cc1ccc(O)cc1)C(=O)N[C@H](C)C(=O)N[C@@H](CC(N)=O)C(=O)N[C@@H](Cc1c[nH]c2ccccc12)C(=O)N[C@@H](CC(N)=O)C(=O)NCC(=O)N[C@@H](Cc1ccccc1)C(=O)NCC(=O)N[C@H](Cc1c[nH]c2ccccc12)C(=O)N[C@@H](CCCNC(=N)N)C(=O)N[C@@H](Cc1ccccc1)C(N)=O` [Peptide 271, ac.R-R-M-K-W-K-K-Y-(D)A-N-W-N-G-F-G-(D)W-R-F.z] (Ac-RRMKWKKY[dA]NWNGFG[dW]RF-NH2), the “Inhibition … % Inhibition of Max” value came out at 57% and 5 nM corresponded to half-maximal inhibition (IC50). For the same compound, the kisspeptin antagonist function result (with N-terminal Antennapedia heptapeptide) is on record as “retains kisspeptin antagonist function”.

As to `CC(=O)N[C@H](C)C(=O)N[C@@H](CC(N)=O)C(=O)N[C@@H](Cc1c[nH]c2ccccc12)C(=O)N[C@@H](CC(N)=O)C(=O)N1CCC[C@H]1C(=O)N[C@@H](Cc1ccccc1)C(=O)NCC(=O)N[C@H](Cc1c[nH]c2ccccc12)C(=O)N[C@@H](CCCNC(=N)N)C(=O)N[C@@H](Cc1ccccc1)C(N)=O` [Peptide 274] (Ac-[dA]NWNPFG[dW]RF-NH2), the “Inhibition … % Inhibition of Max” value turned out to be 73% and the IC50 came to 0.1 nM.

The record behind these values is patent US8916681B2, “Compound, use and method” (Medical Research Council, priority 2007, dated 2014).
